Data reported in the supplement of paper PMC13207355.
Counter-ions that a name gives are not always drawn.

Experiments:
Conditions in all cases: exposure time: 72 h
E21 [1] = patient-derived glioblastoma stem cells of mesenchymal subtype; test: surviving fraction (nuclei count normalised to DMSO); higher = more cells surviving (less toxic)
FT3469 [2] = normal neural stem cell line; test: as above
E31 [3] = patient-derived glioblastoma stem cells of proneural subtype; test: as above
E34 [4] = patient-derived glioblastoma stem cells of proneural subtype; test: as above
E57 [5] = patient-derived glioblastoma stem cells of mesenchymal subtype; test: as above
E28 [6] = patient-derived glioblastoma stem cells of classical subtype; test: as above
E13 [7] = patient-derived glioblastoma stem cells of classical subtype; test: as above
E21 [8] = test: phenotypic distance (Euclidean, principal components) from DMSO controls (arbitrary units); higher = stronger morphological change
FT3469 [9] = test: as above
E31 [10] = test: as above
E34 [11] = test: as above
E57 [12] = test: as above
E28 [13] = test: as above
E13 [14] = test: as above
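Wherever phenotypic distance (Euclidean, principal components) from DMSO controls is given: cell Painting imaging in 384-well plates, CellProfiler features reduced to at least 20 principal components, Euclidean distance versus same-plate DMSO vehicle wells (0.1% v/v), median over six images per well.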
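Wherever surviving fraction (nuclei count normalised to DMSO) is given: nuclei counted by high-content imaging of Hoechst-stained cells in laminin-coated 384-well plates, relative to 0.1% DMSO vehicle wells, with staurosporine as cell-death control.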

Question: `N=c1ccn2c(n1)O[C@H]1[C@H](O)[C@@H](CO)O[C@H]12` [Ancitabine hydrochloride] was tested. Which surviving fraction (E21 [1]; 4.1 nM) did it give?
Answer: 0.896

Question: What about the surviving fraction (E21 [1]; 12.3 nM) of the same compound?
Answer: 0.889

Question: What about the surviving fraction (E21 [1]; 37 nM) of the same compound?
Answer: 0.909

Question: What about the surviving fraction (E21 [1]; 111.1 nM) of the same compound?
Answer: 0.832

Question: What about the surviving fraction (E21 [1]; 333.3 nM) of the same compound?
Answer: 0.693

Question: And the surviving fraction (E21 [1]; 1000 nM)?
Answer: 0.636

Question: And the surviving fraction (E21 [1]; 3000 nM)?
Answer: 0.422

Question: And the surviving fraction (FT3469 [2]; 4.1 nM)?
Answer: 0.699

Question: What about the surviving fraction (FT3469 [2]; 12.3 nM) of the same compound?
Answer: 0.86

Question: And the surviving fraction (FT3469 [2]; 37 nM)?
Answer: 0.964

Question: What about the surviving fraction (FT3469 [2]; 111.1 nM) of the same compound?
Answer: 0.691

Question: What about the surviving fraction (FT3469 [2]; 333.3 nM) of the same compound?
Answer: 0.668

Question: And the surviving fraction (FT3469 [2]; 1000 nM)?
Answer: 0.679

Question: What about the surviving fraction (FT3469 [2]; 3000 nM) of the same compound?
Answer: 0.682

Question: And the surviving fraction (E31 [3]; 4.1 nM)?
Answer: 0.978

Question: And the surviving fraction (E31 [3]; 12.3 nM)?
Answer: 0.749

Question: And the surviving fraction (E31 [3]; 37 nM)?
Answer: 0.721

Question: What about the surviving fraction (E31 [3]; 111.1 nM) of the same compound?
Answer: 0.594

Question: And the surviving fraction (E31 [3]; 333.3 nM)?
Answer: 0.669

Question: And the surviving fraction (E31 [3]; 1000 nM)?
Answer: 0.394

Question: What about the surviving fraction (E31 [3]; 3000 nM) of the same compound?
Answer: 0.176

Question: And the surviving fraction (E34 [4]; 4.1 nM)?
Answer: 0.976

Question: What about the surviving fraction (E34 [4]; 12.3 nM) of the same compound?
Answer: 1.09

Question: And the surviving fraction (E34 [4]; 37 nM)?
Answer: 0.963

Question: What about the surviving fraction (E34 [4]; 111.1 nM) of the same compound?
Answer: 0.86

Question: And the surviving fraction (E34 [4]; 333.3 nM)?
Answer: 0.71

Question: What about the surviving fraction (E34 [4]; 1000 nM) of the same compound?
Answer: 0.689

Question: What about the surviving fraction (E34 [4]; 3000 nM) of the same compound?
Answer: 0.593

Question: And the surviving fraction (E57 [5]; 4.1 nM)?
Answer: 0.931

Question: What about the surviving fraction (E57 [5]; 12.3 nM) of the same compound?
Answer: 0.805

Question: And the surviving fraction (E57 [5]; 37 nM)?
Answer: 0.73

Question: What about the surviving fraction (E57 [5]; 111.1 nM) of the same compound?
Answer: 0.655

Question: And the surviving fraction (E57 [5]; 333.3 nM)?
Answer: 0.409

Question: What about the surviving fraction (E57 [5]; 1000 nM) of the same compound?
Answer: 0.321

Question: What about the surviving fraction (E57 [5]; 3000 nM) of the same compound?
Answer: 0.212

Question: What about the surviving fraction (E28 [6]; 4.1 nM) of the same compound?
Answer: 0.837

Question: What about the surviving fraction (E28 [6]; 12.3 nM) of the same compound?
Answer: 1.18

Question: What about the surviving fraction (E28 [6]; 37 nM) of the same compound?
Answer: 0.826

Question: What about the surviving fraction (E28 [6]; 111.1 nM) of the same compound?
Answer: 0.886

Question: What about the surviving fraction (E28 [6]; 333.3 nM) of the same compound?
Answer: 0.687

Question: What about the surviving fraction (E28 [6]; 1000 nM) of the same compound?
Answer: 0.653

Question: What about the surviving fraction (E28 [6]; 3000 nM) of the same compound?
Answer: 0.482

Question: What about the surviving fraction (E13 [7]; 4.1 nM) of the same compound?
Answer: 0.857

Question: And the surviving fraction (E13 [7]; 12.3 nM)?
Answer: 0.724

Question: And the surviving fraction (E13 [7]; 37 nM)?
Answer: 0.884

Question: What about the surviving fraction (E13 [7]; 111.1 nM) of the same compound?
Answer: 0.812

Question: What about the surviving fraction (E13 [7]; 333.3 nM) of the same compound?
Answer: 0.716

Question: What about the surviving fraction (E13 [7]; 1000 nM) of the same compound?
Answer: 0.67

Question: What about the surviving fraction (E13 [7]; 3000 nM) of the same compound?
Answer: 0.49

Question: And the phenotypic distance (E21 [8]; 4.1 nM)?
Answer: 1.35

Question: And the phenotypic distance (E21 [8]; 12.3 nM)?
Answer: 1.44

Question: And the phenotypic distance (E21 [8]; 37 nM)?
Answer: 1.87

Question: What about the phenotypic distance (E21 [8]; 111.1 nM) of the same compound?
Answer: 2.14

Question: What about the phenotypic distance (E21 [8]; 333.3 nM) of the same compound?
Answer: 3.95

Question: What about the phenotypic distance (E21 [8]; 1000 nM) of the same compound?
Answer: 5.57

Question: What about the phenotypic distance (E21 [8]; 3000 nM) of the same compound?
Answer: 6.36

Question: And the phenotypic distance (FT3469 [9]; 4.1 nM)?
Answer: 1.34

Question: And the phenotypic distance (FT3469 [9]; 12.3 nM)?
Answer: 0.713

Question: What about the phenotypic distance (FT3469 [9]; 37 nM) of the same compound?
Answer: 1.46

Question: And the phenotypic distance (FT3469 [9]; 111.1 nM)?
Answer: 1.24

Question: And the phenotypic distance (FT3469 [9]; 333.3 nM)?
Answer: 3.06

Question: What about the phenotypic distance (FT3469 [9]; 1000 nM) of the same compound?
Answer: 2.47

Question: What about the phenotypic distance (FT3469 [9]; 3000 nM) of the same compound?
Answer: 2.06

Question: What about the phenotypic distance (E31 [10]; 4.1 nM) of the same compound?
Answer: 1.4

Question: What about the phenotypic distance (E31 [10]; 12.3 nM) of the same compound?
Answer: 1.46

Question: What about the phenotypic distance (E31 [10]; 37 nM) of the same compound?
Answer: 1.63

Question: And the phenotypic distance (E31 [10]; 111.1 nM)?
Answer: 2.22

Question: What about the phenotypic distance (E31 [10]; 333.3 nM) of the same compound?
Answer: 2.92

Question: What about the phenotypic distance (E31 [10]; 1000 nM) of the same compound?
Answer: 3.39

Question: What about the phenotypic distance (E31 [10]; 3000 nM) of the same compound?
Answer: 3.87

Question: What about the phenotypic distance (E34 [11]; 4.1 nM) of the same compound?
Answer: 1.44

Question: What about the phenotypic distance (E34 [11]; 12.3 nM) of the same compound?
Answer: 0.954

Question: What about the phenotypic distance (E34 [11]; 37 nM) of the same compound?
Answer: 1.24

Question: What about the phenotypic distance (E34 [11]; 111.1 nM) of the same compound?
Answer: 1.69

Question: And the phenotypic distance (E34 [11]; 333.3 nM)?
Answer: 2.92

Question: What about the phenotypic distance (E34 [11]; 1000 nM) of the same compound?
Answer: 3.78

Question: What about the phenotypic distance (E34 [11]; 3000 nM) of the same compound?
Answer: 5.02

Question: What about the phenotypic distance (E57 [12]; 4.1 nM) of the same compound?
Answer: 3.74

Question: What about the phenotypic distance (E57 [12]; 12.3 nM) of the same compound?
Answer: 1.61

Question: What about the phenotypic distance (E57 [12]; 37 nM) of the same compound?
Answer: 2.27

Question: And the phenotypic distance (E57 [12]; 111.1 nM)?
Answer: 3.75

Question: What about the phenotypic distance (E57 [12]; 333.3 nM) of the same compound?
Answer: 6.65

Question: And the phenotypic distance (E57 [12]; 1000 nM)?
Answer: 7.84

Question: And the phenotypic distance (E57 [12]; 3000 nM)?
Answer: 8.89

Question: And the phenotypic distance (E28 [13]; 4.1 nM)?
Answer: 2.22

Question: And the phenotypic distance (E28 [13]; 12.3 nM)?
Answer: 2

Question: And the phenotypic distance (E28 [13]; 37 nM)?
Answer: 1.29

Question: What about the phenotypic distance (E28 [13]; 111.1 nM) of the same compound?
Answer: 1.66

Question: What about the phenotypic distance (E28 [13]; 333.3 nM) of the same compound?
Answer: 1.88

Question: What about the phenotypic distance (E28 [13]; 1000 nM) of the same compound?
Answer: 2.56

Question: What about the phenotypic distance (E28 [13]; 3000 nM) of the same compound?
Answer: 2.87

Question: And the phenotypic distance (E13 [14]; 4.1 nM)?
Answer: 1.7

Question: And the phenotypic distance (E13 [14]; 12.3 nM)?
Answer: 1.23

Question: And the phenotypic distance (E13 [14]; 37 nM)?
Answer: 1.32

Question: What about the phenotypic distance (E13 [14]; 111.1 nM) of the same compound?
Answer: 1.29

Question: What about the phenotypic distance (E13 [14]; 333.3 nM) of the same compound?
Answer: 2.15

Question: What about the phenotypic distance (E13 [14]; 1000 nM) of the same compound?
Answer: 3.33

Question: What about the phenotypic distance (E13 [14]; 3000 nM) of the same compound?
Answer: 5.43
